Assay results published in patent US20020173505A1, “Medicament” (priority 1999, published 2002).

What was measured:
[1] = test system: human in vitro preparations (airway smooth muscle); experiment: spontaneous tone in human in vitro airway preparations; settings: for nature of the relaxation of spontaneous tone (transient or persistent): human in vitro preparations
Method: (§1) The examinations of the spontaneous tone were performed in accordance with the methods disclosed in the thesis “Regulation of spontaneous tone in guinea pig trachea” by S.Skogvall, Department of Physiological Sci- ences, Lund University, 1999, which is incorporated herein by reference. As evidenced by these examinations, the airways normally display a highly regular type of oscillating tone if exposed to physiological conditions, and the oscillating tone can be reversibly affected by administration of various substances- When the epithelium is removed, the preparations instead display a strong, smooth type of tone.
Similar experiments have also been performed on human in vitro preparations, from patients undergoing lobecotomy or pulmectomy due to lung cancer.
Human airways are generally considered to display only a weak contraction when exposed to S-HT. Nevertheless, examinations on spontaneous tone on human in vitro preparations have shown that 5-HT indeed has a contractile component also in this tissue. However, this contraction takes a longer time to develop than in guinea pig and the contractile effect is seen as a termination of the relaxation, rather than an increase of tone from the baseline. In guinea pig trachea, the contraction reaches a maximum after approximately 10 min, and this is followed by a considerable reduction of tone. However, human preparations instead induce a maximum relaxing effect after 5-10 min, which disappears gradually during the following 30-45 min (see FIG. 1).

[2] = test system: denuded airway smooth muscle preparations from the guinea-pig; experiment: spontaneous tone of denuded guinea-pig airway smooth muscle preparations
Description: The subject-matter of the present invention was inter alia deduced from animal experiments, where a specific behavior of the airway smooth muscle called “spontaneous tone” was examined. The spontaneous tone, which involves a spontaneous continuous contraction in the airway smooth muscle, was studied due to a suspicion that detective regulation of the spontaneous tone could be an important cause of the bronchoconstriction observed in asthmatic patients.
as §1
A contractile effect of serotonin on airway smooth muscle has been reported in e.g. SkQgvall, S., Korsgren, M-, Grampp, W., J. Appl. Phys., 86:789-798, 1999. […] The spontaneous tone returned to approximately its normal level when the preparations were again exposed to control conditions.

## NCCc1c[nH]c2ccc(C(N)=O)cc12 [5-carboxiamidotryptamine, 5-carboxamidotryptamine]
[1]; FIG. 1
  nature of the relaxation of spontaneous tone (transient or persistent): persistent and not transient

## COc1cc(N)c(Cl)cc1C(=O)NC[C@@H]1CCN2CCC[C@@H]12 [SC 53116, 4-amino-5-chloro-N-[[lS, 7aS)-hexahydro-1H-pyrrolizin-l-yl]methyll-2-methoxy-benzamide]
[1]; FIG. 1
  nature of the relaxation of spontaneous tone (transient or persistent): persistent and not transient

## NCCc1c[nH]c2ccc(O)cc12 [serotonin, 3-(P-aminoethyl)-5-hydroxyindole]
[1]; 1 μM, tissue from patients undergoing lobectomy or pulmectomy
  effect on spontaneous tone: significant relaxation
[1]; FIG. 1
  nature of the relaxation of spontaneous tone (transient or persistent): transient relaxation
[1]; human preparations, FIG. 1
  time over which the relaxing effect gradually disappears after the maximum: 30 to 45 min
  time to maximum relaxing effect: 5 to 10 min
[2]; 1 μM added, denuded preparations with strong, smooth spontaneous tone
  average force level of spontaneous tone: increased significantly
[2]; 10 μM added, denuded preparations
  spontaneous tone, level relative to force in control (drug-free) conditions: about half
[2]; guinea pig trachea
  time to maximum contraction: approximately 10 min
